Where two headings read alike, the source gives them in different places.
Columns and labels:
KOR (κ opioid receptor) = target: T1, KOR (κ opioid receptor) (Homo sapiens, UniProt P41145); assay: KOR radioligand binding ([3H]-U69593, HEK293 cell homogenates)
T1 construct: expressed in transfected cells; host or cells: HEK293 (stably transfected)
Procedure: (§1) Radioligand binding assays. Detailed protocols for the primary and secondary radioligand binding assays can be found in the National Institute of Mental Health's Psychoactive Drug Screening Program (NIMH PDSP) Assay Protocol Book (Roth, 2018). Briefly, primary and secondary radioligand binding assays are carried out in a final of volume of 125 μL per well in appropriate binding buffer. […] Total binding and nonspecific binding are determined in the absence and presence of 10 μM of appropriate reference compound (Naltrindole DOR, Salvinorin A KOR and DAMGO MOR). In brief, plates are usually incubated at room temperature and in the dark for 90 min. Reactions are stopped by vacuum filtration onto 0.3% polyethyleneimine (PEI) soaked 96-well filter mats using a 96-well Filtermate harvester, followed by three washes with cold PBS buffer. Scintillation cocktail is then melted onto the microwave-dried filters on a hot plate and radioactivity counted in a Microbeta counter. The data (n=6) were analyzed by nonlinear regression.
(§2) Ligand affinities were determined for KOR (κ opioid receptor), DOR (δ opioid receptor), and MOR (μ opioid receptor) using radioligand binding assays at a screening concentration of 10,000 nM. For these assays, cell homogenates from HEK293 cells that overexpressed KOR, MOR, and DOR were used in combination with [^3H]-U69593, [^3H]-DAMGO, and [^3H]-DADLE, respectively Compounds that exceeded more than 50% radioligand displacement were investigated further in concentration-dependent experiments to determine Ki values. Gamma aminobutyric acid type A receptor (GABAAR) binding was determined with rat brain homogenate and ^3H-flunitrazepam. Flunitrazepam binds GABAAR subtypes that consists of two α and two β subunits and one γ or δ subunit. Strong affinities to α1-3,5,6β1-3γ1-y/δ GABAARS have been reported for flunitrazepam. The […] GABAAR subtype expression in the brain includes 43% α1β2γ2, 15% α2β3γ2+8% α2βγ1, 10% α3β3γ2, 6% α4βγ/δ, 4% α5β3γ2, and 4% α6β2γ2/δ. Therefore, compounds with high affinity toward the synaptic benzodiazepine-sensitive receptors (BZR) predominately bind α1-3β2-3γ1-2 GABAARs. Alternatively, compounds with weak BZR binding might be selective for α4-6βγ/δ GABAARs.
(§3) Psychoactive Drug Screening Program. Detailed protocols for the primary and secondary radioligand binding assays can be found in the National Institute of Mental Health's Psychoactive Drug Screening Program (NIMH PDSP) Assay Protocol Book. Briefly, primary and secondary radioligand binding assays are carried out in a final of volume of 125 μL per well in appropriate binding buffer. The radioactive ligand concentration is close to the Kd. Total binding and nonspecific binding are determined in the absence and presence of 10 μM of appropriate reference compound, respectively. In brief, plates are usually incubated at room temperature and in the dark for 90 min. Reactions are stopped by vacuum filtration onto 0.3% polyethyleneimine (PEI) soaked 96-well filter mats using a 96-well Filtermate harvester, followed by three washes with cold PBS buffer. Scintillation cocktail is then melted onto the microwave-dried filters on a hot plate and radioactivity counted in a Microbeta counter. The data (n=6) were analyzed by nonlinear regression.

MOR (μ opioid receptor) = target: T2, MOR (μ opioid receptor) (Homo sapiens, UniProt P35372); assay: MOR radioligand binding ([3H]-DAMGO, HEK293 cell homogenates); conditions: Percent inhibition at 10,000 nM; [3H]-DAMGO
T2 construct: expressed in transfected cells; host or cells: HEK293
T2 sequence (P35372 whole entry, species assumed): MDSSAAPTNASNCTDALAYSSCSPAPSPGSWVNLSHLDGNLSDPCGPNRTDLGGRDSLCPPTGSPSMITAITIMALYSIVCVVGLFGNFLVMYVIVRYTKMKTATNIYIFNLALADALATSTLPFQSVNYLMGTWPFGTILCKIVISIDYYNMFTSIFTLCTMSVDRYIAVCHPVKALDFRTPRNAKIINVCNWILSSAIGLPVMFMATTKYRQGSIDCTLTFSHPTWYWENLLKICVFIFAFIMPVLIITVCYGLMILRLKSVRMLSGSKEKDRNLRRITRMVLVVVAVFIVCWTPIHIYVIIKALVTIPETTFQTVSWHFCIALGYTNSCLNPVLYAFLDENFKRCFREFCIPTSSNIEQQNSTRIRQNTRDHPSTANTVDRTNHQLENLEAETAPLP
Procedure: as §1, §2, §3

DOR (δ opioid receptor) = target: T3, DOR (δ opioid receptor) (Homo sapiens, UniProt P41143); assay: DOR radioligand binding ([3H]-DADLE, HEK293 cell homogenates); conditions: Percent inhibition at 10,000 nM; [3H]-DADLE
T3 construct: expressed in transfected cells; host or cells: HEK293
T3 sequence (P41143 whole entry): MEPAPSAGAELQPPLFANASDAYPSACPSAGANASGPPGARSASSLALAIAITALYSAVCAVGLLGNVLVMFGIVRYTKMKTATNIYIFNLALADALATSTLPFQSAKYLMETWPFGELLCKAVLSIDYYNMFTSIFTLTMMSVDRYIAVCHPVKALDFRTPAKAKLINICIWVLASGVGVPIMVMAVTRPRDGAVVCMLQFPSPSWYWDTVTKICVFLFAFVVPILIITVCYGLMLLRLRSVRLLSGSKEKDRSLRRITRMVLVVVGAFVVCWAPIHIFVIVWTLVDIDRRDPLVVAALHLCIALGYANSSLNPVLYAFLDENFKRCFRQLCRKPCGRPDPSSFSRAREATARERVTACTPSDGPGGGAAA
Procedure: as §1, §2, §3

[1] = tested on: BZR (benzodiazepine site of GABAAR); assay: GABAAR/BZR binding, rat brain homogenate with 3H-flunitrazepam; conditions: rat brain homogenate, 3H-flunitrazepam; for BZR %: Percent inhibition at 10,000 nM
Procedure: as §2, §3

Mouse microglia = assay: NO production (Griess assay), LPS/IFNγ-activated mouse microglia; format: cell-based; conditions: with 50 μM MP-IV-010; flumazenil 50 μM, picrotoxin 50 μM, bicuculline 100 μM, SM-21 30 μM, norbinaltorphimine 30 μM
Procedure: Next, a library of GABAAR ligands was investigated to identify compounds that reduce the production of NO as a marker of anti-inflammatory activity. […] NO was quantified with a Greiss assay. Cell viability was determined with CellTiter-Glo.
Cell culture. A) HMC3 Microglia (CRL-3304) were maintained in treated cell culture flasks (Nunc, 156472) with EMEM (Corning, 10010CV) supplemented with 10% heat-inactivated FBS (Corning, 35011CV) and 100 U/mL penicillin and 100 μg/mL streptomycin (Hyclone, SV30010). Cultures were maintained at 37° C. and 5% CO2. When cells reached a density of 7×10^4 cells/mL, cultures were passaged with 0.25% Trypsin (Corning, 25-053-CI) and resuspended to a density no lower than 10,000 cells/mL. B) Human and mouse microglia cell lines were a gift from Dr. David Alvarez-Carbonell at Case Western Reserve University (Cleveland, OH). Microglia were cultured in cell culture treated flasks (Nunc, 156472) with DME/F12 media (Hyclone, SH30023.01) supplemented with 10% heat-inactivated FBS (Corning, 35011CV), 100 U/mL penicillin/100 μg/mL streptomycin (Hyclone, SV30010), and Normocin (Invivogen, ant-nr). Cultures were maintained at 37° C. and 5% CO2. […] Cultures were maintained at 37° C. and 5% CO2. Cells were passaged when they reached a density of approximately 3×10^6 cells/mL using cell scrapers (VWR, 10062-906) to lift cells from flask surface and resuspended at densities of approximately 500,000 cells/mL.
Nitric oxide production (Griess assay) and viability assay (CellTiter-Glo). 80 μL of mouse microglia culture (1×10^6 cells/mL) was plated into sterile 384 well plates representing non-activated wells. The remaining culture was activated with 50 ng/ml LPS (Invivogen, NC9836) and 150 U/mL IFNγ (R&D Systems, 485MI100) and distributed into the 384 well plates. […] Assay plates were incubated for approximately 24 hours (unless otherwise noted) at 37° C., centrifuged, and 40 μL of supernatant transferred to a new plate for analysis using the Griess Assay (Promega, Madison, WI). Absorbance at 530 nm was measured using a TECAN Infinite M1000 plate reader. The remaining 40 μL containing cells was analyzed for toxicity by the CellTiter-Glo Assay (Promega, Madison, WI). Luminescence was read using a TECAN Infinite M1000 plate reader.

[2] = Percent inhibition at 10,000 nM, [3H]-U69593
[3] = concentration-dependent, [3H]-U69593, read-out: KOR (Ki)

T1 sequence (P41145 whole entry): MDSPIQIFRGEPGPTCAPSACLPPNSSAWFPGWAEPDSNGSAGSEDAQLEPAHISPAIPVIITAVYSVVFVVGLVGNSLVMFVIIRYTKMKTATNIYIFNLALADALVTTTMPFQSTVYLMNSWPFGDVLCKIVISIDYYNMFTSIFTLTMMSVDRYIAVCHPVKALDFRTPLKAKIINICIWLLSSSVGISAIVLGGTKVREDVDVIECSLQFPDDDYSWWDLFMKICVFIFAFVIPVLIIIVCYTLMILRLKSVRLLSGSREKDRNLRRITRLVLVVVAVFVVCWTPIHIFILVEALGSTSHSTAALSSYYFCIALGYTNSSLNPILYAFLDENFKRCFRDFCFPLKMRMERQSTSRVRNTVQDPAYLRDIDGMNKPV

Molecule	inhibition at 10 µM (KOR (κ opioid receptor); [2])	Ki (KOR (κ opioid receptor); [3])	inhibition at 10 µM (MOR (μ opioid receptor))	inhibition at 10 µM (DOR (δ opioid receptor))	BZR % [1]	Ki [1]	reversal of the NO reduction by MP-IV-010 (in words) (Mouse microglia)	KOR affinity (in words) (KOR (κ opioid receptor); radioligand binding)	KOR % (KOR (κ opioid receptor); [2])	MOR % (MOR (μ opioid receptor))	DOR % (DOR (δ opioid receptor))	Ki (KOR (κ opioid receptor))
C#Cc1ccc2c(c1)C(c1ccccc1F)=N[C@H](C)c1c(C(=O)NCC)ncn1-2 [GL-II-74]	86%	194 nM	10%	0%	84%	68 nM	–	–	–	–	–	–
C#Cc1ccc2c(c1)C(c1ccccc1F)=N[C@H](C)c1c(C(=O)OCC)ncn1-2 [SH-053-2′F-R-CH3]	89%	240 nM	28%	32%	85%	379 nM	–	–	–	–	–	–
C#Cc1ccc2c(c1)C(c1ccccc1F)=N[C@@H](C)c1c(C(=O)OCCC)ncn1-2 [GL-I-32]	95%	64 nM	9%	14%	98%	148 nM	–	–	–	–	–	–
C#Cc1ccc2c(c1)C(c1ccccc1F)=N[C@@H](C)c1c(C(=O)OC(C)(C)CC)ncn1-2 [GL-I-33]	94%	34 nM	30%	25%	96%	117 nM	–	–	–	–	–	–
C#Cc1ccc2c(c1)C(c1ccccc1F)=N[C@@H](C)c1c(C(=O)OC)ncn1-2 [MP-III-021]	93%	122 nM	0%	22%	88%	219 nM	–	–	–	–	–	–
C#Cc1ccc2c(c1)C(c1ccccc1F)=N[C@@H](C)c1c(C(=O)NC3CC3)ncn1-2 [GL-I-55]	93%	150 nM	17%	24%	95%	20 nM	–	–	–	–	–	–
C#Cc1ccc2c(c1)C(c1ccccn1)=NCc1c(C(=O)O)ncn1-2 [SR-II-54]	9%	–	8%	1%	80%	69 nM	–	–	–	–	–	–
CCOC(=O)c1ncn2c1CN(C)C(=O)c1cc(F)ccc1-2 [flumazenil, Flumazenil, reference compound]	–	–	–	–	–	–	did not reverse	–	–	–	–	–
CCC(Oc1ccc(Cl)cc1)C(=O)OC1CC2CCC(C1)N2C (centres unmarked) [SM-21, reference compound]	–	–	–	–	–	–	no reversal	–	–	–	–	–
C#Cc1ccc2c(c1)C(c1ccccc1F)=N[C@@H](C)c1c(C(N)=O)ncn1-2 [MP-III-018.B]	51%	2780 nM	2%	10%	97%	17 nM	–	–	–	–	–	–
C[C@H]1N=C(c2ccccc2F)c2cc(Br)ccc2-n2cnc(C(=O)O)c21 [GL-II-93]	0%	–	0%	0%	73%	86 nM	–	No KOR affinity was observed	–	–	–	–
C#Cc1ccc2c(c1)C(c1ccccn1)=N[C@H](C)c1c(C(=O)O)ncn1-2 [GL-II-30]	0%	–	20%	4%	65%	431 nM	–	–	–	–	–	–
C#Cc1ccc2c(c1)C(c1ccccn1)=N[C@H](C)c1c(C(=O)NC)ncn1-2 [GL-II-31]	23%	–	17%	3%	72%	1700 nM	–	–	–	–	–	–
C#Cc1ccc2c(c1)C(c1ccccn1)=NCc1c(C(=O)OCC)ncn1-2 [Hz-166]	60%	3820 nM	6%	49%	–	–	–	–	–	–	–	–
C#Cc1ccc2c(c1)C(c1ccccc1F)=N[C@H](C)c1c(C(=O)OC)ncn1-2 [MP-III-004]	76%	599 nM	0%	24%	78%	445 nM	–	–	–	–	–	–
Brc1ccc2c(c1)C(c1ccccc1)=NCc1c(-c3cnco3)ncn1-2 [KRM-II-73]	83%	736 nM	11%	32%	97%	45 nM	–	–	–	–	–	–
C#Cc1ccc2c(c1)C(c1ccccc1F)=N[C@H](C)c1c(C(=O)N(C)C)ncn1-2 [GL-II-73]	58%	1190 nM	6%	0%	75%	506 nM	–	–	–	–	–	–
Cc1ncoc1-c1ncn2c1CN=C(c1ccccc1F)c1cc(Br)ccc1-2 [KRM-III-59]	–	408 nM	–	–	96%	20 nM	–	–	73%	0%	11%	–
CCOC(=O)c1ncn2c1[C@H](C)N=C(c1ccccc1F)c1cc(Br)ccc1-2 [SH-I-048B]	95%	–	0%	0%	61%	96 nM	–	–	–	–	–	63 nM
C#Cc1ccc2c(c1)C(c1ccccc1F)=NCc1c(-c3ocnc3C)ncn1-2 [KRM-III-65]	64%	879 nM	0%	16%	96%	45 nM	–	–	–	–	–	–
CCOC(=O)c1ncn2c1[C@@H](C)N=C(c1ccccc1F)c1cc(Br)ccc1-2 [SH-I-047]	82%	–	16%	0%	84%	238 nM	–	–	–	–	–	86 nM
Oc1ccc2c3c1O[C@H]1c4[nH]c5c(c4C[C@@]4(O)[C@@H](C2)N(CC2CC2)CC[C@]314)C[C@@]1(O)[C@H]2Cc3ccc(O)c4c3[C@@]1(CCN2CC1CC1)[C@H]5O4 [norbinaltorphimine, reference compound]	–	–	–	–	–	–	reversed the effects of MP-IV-010	–	–	–	–	–
picrotoxin [reference compound]	–	–	–	–	–	–	did not reverse	–	–	–	–	–

Reference: patent US20240279232A1, “USE OF SUBSTITUTED 5-(4-METHYL-6-PHENYL-4H-BENZO[F]IMIDAZO[1,5-A][1,4] DIAZEPIN-3-YL)-1,2,4-O[…] THE TREATMENT OF INFLAMMATORY CONDITIONS” (priority 2021, published 2024)
